Here are results for 11 compounds from ChEMBL document CHEMBL1240418, “Carbonic anhydrase inhibitors. Regioselective synthesis of novel 1-substituted 1,4-dihydro-4-oxo-3-pyridinesulfonamides and their inhibition of the human cytosolic isozymes I and II and transmembrane cancer-associated isozymes IX and XII” (Eur J Med Chem, 2010).

A word on the Ki: it is the dissociation constant of the complex between target and ligand, obtained from inhibition or displacement. Low values mean tighter binding, high ones weaker binding.

For the assay, the target named is Carbonic anhydrase 9 (Homo sapiens, UniProt Q16790).
Take `Cn1ccc(=O)c(S(N)(=O)=O)c1`: the affinity, expressed as Ki, was 7.1 nM. The value for `NS(=O)(=O)c1cn(Cc2ccccc2)ccc1=O` was 7.8 nM; that for `NC(=O)Cn1ccc(=O)c(S(N)(=O)=O)c1` was 64 nM. The value for `COC(=O)Nc1ccccc1C(=O)n1ccc(=O)c(S(N)(=O)=O)c1` was 96 nM; that for `NS(=O)(=O)c1cn(CC(=O)c2ccc(Cl)cc2)ccc1=O` was 11.8 nM; that for `NS(=O)(=O)c1cn(CC(=O)c2ccc(F)cc2)ccc1=O` was 9.7 nM.

`NS(=O)(=O)c1cn(CC(=O)c2ccc(Cl)c(Cl)c2)ccc1=O` came in with an inhibitory constant (Ki) of 8.6 nM. The compound `NS(=O)(=O)c1cn(CC(=O)c2cccc([N+](=O)[O-])c2)ccc1=O` came in with an inhibition constant Ki of 11.9 nM. The value for `NS(=O)(=O)c1cn(CC(=O)c2ccc3ccccc3c2)ccc1=O` was 118 nM; that for `NS(=O)(=O)c1cn(-c2ccc([N+](=O)[O-])cc2[N+](=O)[O-])ccc1=O` was 5.8 nM. Compound `NS(=O)(=O)c1cn(-c2ccc([N+](=O)[O-])c3[n-][o+]nc23)ccc1=O` gave a Ki of 6.9 nM.
